Assay results taken from patent US9340590B2 (priority 2011, dated 2016).
Positions of bridges follow the written chain, without caps; N, C: chain ends. Non-standard residues stand in square brackets, D forms with d. Residues, ends and D or L forms follow the SMILES beside them. *: point of attachment. Pent4ynoyl = C#CCCC(=O)*; Pra = C#CC[C@H](N)C(=O)O; Abu = CC[C@H](N)C(=O)O

What was measured:
hNav1.5 = hNav1.5 (Homo sapiens, UniProt Q14524); experiment: cell-based
hNav1.7 = hNav1.7 (Homo sapiens, UniProt Q15858); experiment: cell-based; settings: Nav1.7 Use IC50
hNav1.7, sequence (Q15858 whole entry, looked up): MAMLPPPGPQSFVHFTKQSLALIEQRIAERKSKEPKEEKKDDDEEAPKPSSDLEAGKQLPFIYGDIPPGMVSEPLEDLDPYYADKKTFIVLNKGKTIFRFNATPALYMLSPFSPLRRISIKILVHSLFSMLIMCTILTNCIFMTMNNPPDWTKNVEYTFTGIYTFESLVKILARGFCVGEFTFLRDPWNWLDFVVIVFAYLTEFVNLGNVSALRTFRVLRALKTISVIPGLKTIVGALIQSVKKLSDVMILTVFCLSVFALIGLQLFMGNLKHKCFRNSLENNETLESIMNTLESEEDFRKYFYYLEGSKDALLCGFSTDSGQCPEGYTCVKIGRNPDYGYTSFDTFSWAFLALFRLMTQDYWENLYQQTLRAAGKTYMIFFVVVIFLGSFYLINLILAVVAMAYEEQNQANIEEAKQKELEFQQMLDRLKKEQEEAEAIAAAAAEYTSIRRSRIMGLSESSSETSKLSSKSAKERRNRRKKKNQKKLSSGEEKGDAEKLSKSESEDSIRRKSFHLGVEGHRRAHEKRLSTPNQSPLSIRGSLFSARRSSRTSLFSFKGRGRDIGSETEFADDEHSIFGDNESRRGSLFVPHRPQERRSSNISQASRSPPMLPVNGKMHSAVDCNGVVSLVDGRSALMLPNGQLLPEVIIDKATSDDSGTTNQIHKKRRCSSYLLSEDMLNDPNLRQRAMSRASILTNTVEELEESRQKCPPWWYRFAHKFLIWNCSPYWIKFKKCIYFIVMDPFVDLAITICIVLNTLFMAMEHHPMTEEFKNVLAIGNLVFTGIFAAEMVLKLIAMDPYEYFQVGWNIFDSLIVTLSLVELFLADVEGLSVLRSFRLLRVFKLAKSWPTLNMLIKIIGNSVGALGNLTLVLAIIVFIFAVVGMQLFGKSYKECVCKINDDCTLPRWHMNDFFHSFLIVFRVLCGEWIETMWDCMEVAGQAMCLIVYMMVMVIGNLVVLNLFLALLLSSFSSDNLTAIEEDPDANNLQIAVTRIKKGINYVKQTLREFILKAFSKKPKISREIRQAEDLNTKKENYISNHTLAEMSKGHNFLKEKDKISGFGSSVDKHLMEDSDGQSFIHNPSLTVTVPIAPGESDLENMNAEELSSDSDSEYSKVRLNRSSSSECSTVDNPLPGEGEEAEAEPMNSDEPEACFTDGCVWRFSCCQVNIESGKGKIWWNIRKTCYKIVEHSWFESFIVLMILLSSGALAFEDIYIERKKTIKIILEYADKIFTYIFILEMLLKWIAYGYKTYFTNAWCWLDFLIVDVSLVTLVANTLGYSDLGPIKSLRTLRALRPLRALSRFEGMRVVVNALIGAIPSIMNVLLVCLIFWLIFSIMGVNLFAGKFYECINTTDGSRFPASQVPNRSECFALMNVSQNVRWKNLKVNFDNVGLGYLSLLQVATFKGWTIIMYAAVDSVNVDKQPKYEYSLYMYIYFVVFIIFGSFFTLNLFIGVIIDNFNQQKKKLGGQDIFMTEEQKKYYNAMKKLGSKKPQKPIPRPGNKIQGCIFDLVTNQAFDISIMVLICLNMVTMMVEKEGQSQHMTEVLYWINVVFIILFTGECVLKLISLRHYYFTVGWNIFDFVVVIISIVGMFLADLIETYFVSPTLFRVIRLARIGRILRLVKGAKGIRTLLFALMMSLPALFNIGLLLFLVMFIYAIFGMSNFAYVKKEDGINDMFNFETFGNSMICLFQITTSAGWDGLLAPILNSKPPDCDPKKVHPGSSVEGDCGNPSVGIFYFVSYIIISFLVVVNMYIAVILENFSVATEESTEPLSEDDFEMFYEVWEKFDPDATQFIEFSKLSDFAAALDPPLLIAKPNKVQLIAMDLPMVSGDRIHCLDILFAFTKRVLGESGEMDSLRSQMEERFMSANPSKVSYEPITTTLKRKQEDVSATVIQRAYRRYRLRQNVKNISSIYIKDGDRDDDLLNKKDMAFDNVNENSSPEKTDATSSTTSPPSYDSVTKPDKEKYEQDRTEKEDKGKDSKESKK

hNav1.5, sequence (Q14524 whole entry, looked up): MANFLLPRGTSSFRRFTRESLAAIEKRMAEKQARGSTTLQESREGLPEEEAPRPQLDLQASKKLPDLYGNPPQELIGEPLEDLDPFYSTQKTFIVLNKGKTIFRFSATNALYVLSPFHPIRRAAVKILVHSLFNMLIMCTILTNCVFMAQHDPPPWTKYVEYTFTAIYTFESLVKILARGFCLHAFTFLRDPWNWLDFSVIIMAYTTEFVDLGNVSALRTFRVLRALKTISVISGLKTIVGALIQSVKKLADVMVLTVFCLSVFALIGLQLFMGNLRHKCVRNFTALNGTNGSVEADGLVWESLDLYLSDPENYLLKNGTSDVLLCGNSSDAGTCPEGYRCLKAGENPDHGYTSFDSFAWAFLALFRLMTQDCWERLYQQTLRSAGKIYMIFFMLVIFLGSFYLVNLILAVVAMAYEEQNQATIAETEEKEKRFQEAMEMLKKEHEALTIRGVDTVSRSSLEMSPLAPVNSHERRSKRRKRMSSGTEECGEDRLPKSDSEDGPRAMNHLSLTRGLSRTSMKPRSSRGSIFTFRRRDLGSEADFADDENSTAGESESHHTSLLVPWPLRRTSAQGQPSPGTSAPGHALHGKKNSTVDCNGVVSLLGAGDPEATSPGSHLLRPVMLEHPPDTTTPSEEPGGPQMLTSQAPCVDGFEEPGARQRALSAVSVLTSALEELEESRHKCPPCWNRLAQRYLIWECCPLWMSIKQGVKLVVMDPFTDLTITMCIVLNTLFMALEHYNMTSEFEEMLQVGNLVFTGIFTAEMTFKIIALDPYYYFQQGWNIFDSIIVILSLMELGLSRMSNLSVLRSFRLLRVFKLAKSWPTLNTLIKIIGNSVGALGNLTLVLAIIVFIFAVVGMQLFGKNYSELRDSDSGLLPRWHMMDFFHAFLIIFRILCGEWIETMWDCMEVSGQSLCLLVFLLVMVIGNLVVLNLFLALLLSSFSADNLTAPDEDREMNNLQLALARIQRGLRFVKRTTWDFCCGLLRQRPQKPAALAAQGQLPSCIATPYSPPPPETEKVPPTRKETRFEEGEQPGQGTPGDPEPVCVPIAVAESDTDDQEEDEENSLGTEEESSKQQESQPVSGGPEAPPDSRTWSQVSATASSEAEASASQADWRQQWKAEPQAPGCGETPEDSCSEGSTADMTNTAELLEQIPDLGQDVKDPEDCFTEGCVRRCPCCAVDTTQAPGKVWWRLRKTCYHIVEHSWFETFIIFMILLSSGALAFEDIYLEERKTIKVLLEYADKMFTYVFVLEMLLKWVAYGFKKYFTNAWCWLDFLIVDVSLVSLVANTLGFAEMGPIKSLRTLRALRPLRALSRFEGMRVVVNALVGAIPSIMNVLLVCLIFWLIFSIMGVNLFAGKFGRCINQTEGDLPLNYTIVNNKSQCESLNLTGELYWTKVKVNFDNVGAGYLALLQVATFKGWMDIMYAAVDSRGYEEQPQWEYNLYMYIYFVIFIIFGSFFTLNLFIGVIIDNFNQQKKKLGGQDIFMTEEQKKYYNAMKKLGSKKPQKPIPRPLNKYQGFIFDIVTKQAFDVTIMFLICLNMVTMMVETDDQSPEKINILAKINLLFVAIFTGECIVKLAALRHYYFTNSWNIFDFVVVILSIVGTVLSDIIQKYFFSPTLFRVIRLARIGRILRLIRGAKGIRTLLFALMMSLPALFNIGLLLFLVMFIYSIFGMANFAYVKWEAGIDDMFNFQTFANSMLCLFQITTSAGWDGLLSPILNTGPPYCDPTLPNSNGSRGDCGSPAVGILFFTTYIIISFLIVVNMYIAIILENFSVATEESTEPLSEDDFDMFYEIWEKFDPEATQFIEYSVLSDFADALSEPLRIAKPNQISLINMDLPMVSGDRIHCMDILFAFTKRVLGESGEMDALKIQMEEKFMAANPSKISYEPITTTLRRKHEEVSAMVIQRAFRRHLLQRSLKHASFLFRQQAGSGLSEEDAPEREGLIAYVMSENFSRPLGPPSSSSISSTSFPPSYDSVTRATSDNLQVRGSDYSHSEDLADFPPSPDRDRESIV

Structure (SMILES) | IC50 (hNav1.5) | IC50 (hNav1.7)
C#CC[C@@H]1NC(=O)[C@H](CC(=O)O)NC(=O)[C@@H]2CCCN2C(=O)[C@H]([C@@H](C)CC)NC(=O)[C@@H]2CSSC[C@@H]3NC(=O)[C@H](C(C)C)NC(=O)[C@H](CC(C)C)NC(=O)[C@H](CC(N)=O)NC(=O)[C@@H]4CCCN4C(=O)[C@H](CCCNC(=N)N)NC(=O)[C@H](CSSC[C@H](NC(=O)[C@@H](N)CC(=O)O)C(=O)N[C@@H](CC(C)C)C(=O)NCC(=O)N[C@@H](C)C(=O)N[C@@H](Cc4ccccc4)C(=O)N[C@@H](CCCNC(=N)N)C(=O)N[C@@H](CCCCN)C(=O)N2)NC(=O)[C@H](CSSC[C@@H](C(=O)N[C@@H](CCCCN)C(=O)N[C@@H](Cc2ccc(O)cc2)C(=O)N[C@H](C(=O)N[C@@H](Cc2ccccc2)C(N)=O)C(C)C)NC(=O)[C@H](Cc2c[nH]c4ccccc24)NC(=O)[C@H](CCCNC(=N)N)NC(=O)[C@H](Cc2c[nH]cn2)NC(=O)[C@H](CC(C)C)NC(=O)[C@H](CCCNC(=N)N)NC(=O)[C@H](CO)NC3=O)NC(=O)[C@H](CCCCN)NC(=O)[C@H](CC(=O)O)NC1=O (H-DCLGAFRKCIPD[Pra]DKCCRPNLVCSRLHRWCKYVF-NH2; disulfide 2-17, 9-23, 16-30) | > 10000 nM | 3 nM
CC[C@H](C)[C@@H]1NC(=O)[C@@H]2CSSC[C@@H]3NC(=O)[C@H](C(C)C)NC(=O)[C@H](CC(C)C)NC(=O)[C@H](CC(N)=O)NC(=O)[C@@H]4CCCN4C(=O)[C@H](CCCNC(=N)N)NC(=O)[C@H](CSSC[C@H](NC(=O)[C@@H](N)CC(=O)O)C(=O)N[C@@H](CC(C)C)C(=O)NCC(=O)N[C@@H](C)C(=O)N[C@@H](CC(C)C)C(=O)N[C@@H](CCCNC(=N)N)C(=O)N[C@@H](CCCCN)C(=O)N2)NC(=O)[C@H](CSSC[C@@H](C(=O)N[C@@H](CCCCN)C(=O)N[C@@H](Cc2ccc(O)cc2)C(=O)N[C@H](C(=O)N[C@@H](Cc2ccccc2)C(=O)N[C@@H](Cc2c[nH]c4ccccc24)C(=O)O)C(C)C)NC(=O)[C@H](Cc2c[nH]c4ccccc24)NC(=O)[C@H](CCCNC(=N)N)NC(=O)[C@H](Cc2c[nH]cn2)NC(=O)[C@H]([C@@H](C)O)NC(=O)[C@H](CCCNC(=N)N)NC(=O)[C@H](CO)NC3=O)NC(=O)[C@H](CCCCN)NC(=O)[C@H](CC(=O)O)NC(=O)[C@H](CC(N)=O)NC(=O)[C@H](CC(=O)O)NC(=O)[C@@H]2CCCN2C1=O (H-DCLGALRKCIPDNDKCCRPNLVCSRTHRWCKYVFW-OH; disulfide 2-17, 9-23, 16-30) | > 10000 nM | 50 nM
CC[C@@H]1NC(=O)[C@H](CC(=O)O)NC(=O)[C@@H]2CCCN2C(=O)[C@H]([C@@H](C)CC)NC(=O)[C@@H]2CSSC[C@@H]3NC(=O)[C@H](C(C)C)NC(=O)[C@H](CC(C)C)NC(=O)[C@H](CC(N)=O)NC(=O)[C@@H]4CCCN4C(=O)[C@H](CCCNC(=N)N)NC(=O)[C@H](CSSC[C@H](NC(=O)[C@@H](N)CC(=O)O)C(=O)N[C@@H](CC(C)C)C(=O)NCC(=O)N[C@@H](C)C(=O)N[C@@H](CC(C)C)C(=O)N[C@@H](CCCNC(=N)N)C(=O)N[C@@H](CCCCN)C(=O)N2)NC(=O)[C@H](CSSC[C@@H](C(=O)N[C@@H](CCCCN)C(=O)N[C@@H](Cc2ccc(O)cc2)C(=O)N[C@H](C(=O)N[C@@H](Cc2ccccc2)C(N)=O)C(C)C)NC(=O)[C@H](Cc2c[nH]c4ccccc24)NC(=O)[C@H](CCCNC(=N)N)NC(=O)[C@H](Cc2c[nH]cn2)NC(=O)[C@H](CC(C)C)NC(=O)[C@H](CCCNC(=N)N)NC(=O)[C@H](CO)NC3=O)NC(=O)[C@H](CCCCN)NC(=O)[C@H](CC(=O)O)NC1=O (H-DCLGALRKCIPD[Abu]DKCCRPNLVCSRLHRWCKYVF-NH2; disulfide 2-17, 9-23, 16-30) | > 10000 nM | 8.7 nM
C#CCCC(=O)NCCCC[C@@H]1NC(=O)[C@H](CC(=O)O)NC(=O)[C@@H]2CCCN2C(=O)[C@H]([C@@H](C)CC)NC(=O)[C@@H]2CSSC[C@@H]3NC(=O)[C@H](C(C)C)NC(=O)[C@H](CC(C)C)NC(=O)[C@H](CC(N)=O)NC(=O)[C@@H]4CCCN4C(=O)[C@H](CCCNC(=N)N)NC(=O)[C@H](CSSC[C@H](NC(=O)[C@@H](N)CC(=O)O)C(=O)N[C@@H](CC(C)C)C(=O)NCC(=O)N[C@@H](CC)C(=O)N[C@@H](CC(C)C)C(=O)N[C@@H](CCCNC(=N)N)C(=O)N[C@@H](CCCCN)C(=O)N2)NC(=O)[C@H](CSSC[C@@H](C(=O)N[C@@H](CCCCN)C(=O)N[C@@H](Cc2ccc(O)cc2)C(=O)N[C@H](C(=O)N[C@@H](Cc2ccccc2)C(N)=O)C(C)C)NC(=O)[C@H](Cc2c[nH]c4ccccc24)NC(=O)[C@H](CCCNC(=N)N)NC(=O)[C@H](Cc2c[nH]cn2)NC(=O)[C@H]([C@@H](C)O)NC(=O)[C@H](CCCNC(=N)N)NC(=O)[C@H](CO)NC3=O)NC(=O)[C@H](CCCCN)NC(=O)[C@H](CC(=O)O)NC1=O (H-DCLG[Abu]LRKCIPDK(Pent4ynoyl)DKCCRPNLVCSRTHRWCKYVF-NH2; disulfide 2-17, 9-23, 16-30) | > 10000 nM | 2 nM
CC[C@H](C)[C@@H]1NC(=O)[C@@H]2CSSC[C@@H]3NC(=O)[C@H](C(C)C)NC(=O)[C@H](CC(C)C)NC(=O)[C@H](CC(N)=O)NC(=O)[C@@H]4CCCN4C(=O)[C@H](CCCNC(=N)N)NC(=O)[C@H](CSSC[C@H](NC(=O)[C@H](CC(=O)O)NC(=O)[C@H](CO)NC(=O)CN)C(=O)N[C@@H](CC(C)C)C(=O)NCC(=O)N[C@@H](C)C(=O)N[C@@H](Cc4ccccc4)C(=O)N[C@@H](CCCNC(=N)N)C(=O)N[C@@H](CCCCN)C(=O)N2)NC(=O)[C@H](CSSC[C@@H](C(=O)N[C@@H](CCCCN)C(=O)N[C@@H](Cc2ccc(O)cc2)C(=O)N[C@H](C(=O)N[C@@H](Cc2ccccc2)C(=O)N[C@@H](Cc2ccccc2)C(=O)O)C(C)C)NC(=O)[C@H](Cc2c[nH]c4ccccc24)NC(=O)[C@H](CCCNC(=N)N)NC(=O)[C@H](Cc2c[nH]cn2)NC(=O)[C@H]([C@@H](C)O)NC(=O)[C@H](CCCNC(=N)N)NC(=O)[C@H](CO)NC3=O)NC(=O)[C@H](CCCCN)NC(=O)[C@H](CC(=O)O)NC(=O)[C@H](CC(N)=O)NC(=O)[C@H](CC(=O)O)NC(=O)[C@@H]2CCCN2C1=O (H-GSDCLGAFRKCIPDNDKCCRPNLVCSRTHRWCKYVFF-OH; disulfide 4-19, 11-25, 18-32) | > 10000 nM | 47 nM
C#CCCC(=O)N[C@@H](CC(=O)O)C(=O)N[C@H]1CSSC[C@@H]2NC(=O)[C@@H]3CSSC[C@@H](C(=O)N[C@@H](CCCCN)C(=O)N[C@@H](Cc4ccc(O)cc4)C(=O)N[C@H](C(=O)N[C@@H](Cc4ccccc4)C(N)=O)C(C)C)NC(=O)[C@H](Cc4c[nH]c5ccccc45)NC(=O)[C@H](CCCNC(=N)N)NC(=O)[C@H](Cc4c[nH]cn4)NC(=O)[C@H]([C@@H](C)O)NC(=O)[C@H](CCCNC(=N)N)NC(=O)[C@H](CO)NC(=O)[C@H](CSSC[C@H](NC(=O)[C@H](CCCCN)NC(=O)[C@H](CCCNC(=N)N)NC(=O)[C@H](Cc4ccccc4)NC(=O)[C@H](C)NC(=O)CNC(=O)[C@H](CC(C)C)NC1=O)C(=O)N[C@@H]([C@@H](C)CC)C(=O)N1CCC[C@H]1C(=O)N[C@@H](CC(=O)O)C(=O)N[C@@H](CC)C(=O)N[C@@H](CC(=O)O)C(=O)N[C@@H](CCCCN)C(=O)N3)NC(=O)[C@H](C(C)C)NC(=O)[C@H](CC(C)C)NC(=O)[C@H](CC(N)=O)NC(=O)[C@@H]1CCCN1C(=O)[C@H](CCCNC(=N)N)NC2=O (Pent4ynoyl-DCLGAFRKCIPD[Abu]DKCCRPNLVCSRTHRWCKYVF-NH2; disulfide 2-17, 9-23, 16-30) | > 10000 nM | 4 nM
